Laboratory results as given in paper PMC3961306, “Comparison of the Cancer Gene Targeting and Biochemical Selectivities of All Targeted Kinase Inhibitors Approved for Clinical Use” (PLoS ONE, 2014).

Legend:
Assay in all cases: Kinase profiling in a biochemical assay panel (mobility shift assays and ELISA), %-inhibition at 1 μM; selectivity entropy
[1] = biological target: panel of more than 300 wild-type and mutant kinases (313 kinase panel) (Homo sapiens, UniProt P07947)
[2] = biological target: panel of more than 300 wild-type and mutant kinases (313 kinase panel) (Homo sapiens, UniProt P12931)
[3] = biological target: panel of more than 300 wild-type and mutant kinases (313 kinase panel) (Homo sapiens, UniProt P17252)
[4] = biological target: panel of more than 300 wild-type and mutant kinases (313 kinase panel) (Homo sapiens, UniProt Q06187); conditions: kinase BTK; 1 μM compound
[5] = biological target: panel of more than 300 wild-type and mutant kinases (313 kinase panel) (Homo sapiens, UniProt Q13233)
Chain of panel of more than 300 wild-type and mutant kinases (313 kinase panel) (Homo sapiens, UniProt Q13233) (Q13233 whole entry, change not shown): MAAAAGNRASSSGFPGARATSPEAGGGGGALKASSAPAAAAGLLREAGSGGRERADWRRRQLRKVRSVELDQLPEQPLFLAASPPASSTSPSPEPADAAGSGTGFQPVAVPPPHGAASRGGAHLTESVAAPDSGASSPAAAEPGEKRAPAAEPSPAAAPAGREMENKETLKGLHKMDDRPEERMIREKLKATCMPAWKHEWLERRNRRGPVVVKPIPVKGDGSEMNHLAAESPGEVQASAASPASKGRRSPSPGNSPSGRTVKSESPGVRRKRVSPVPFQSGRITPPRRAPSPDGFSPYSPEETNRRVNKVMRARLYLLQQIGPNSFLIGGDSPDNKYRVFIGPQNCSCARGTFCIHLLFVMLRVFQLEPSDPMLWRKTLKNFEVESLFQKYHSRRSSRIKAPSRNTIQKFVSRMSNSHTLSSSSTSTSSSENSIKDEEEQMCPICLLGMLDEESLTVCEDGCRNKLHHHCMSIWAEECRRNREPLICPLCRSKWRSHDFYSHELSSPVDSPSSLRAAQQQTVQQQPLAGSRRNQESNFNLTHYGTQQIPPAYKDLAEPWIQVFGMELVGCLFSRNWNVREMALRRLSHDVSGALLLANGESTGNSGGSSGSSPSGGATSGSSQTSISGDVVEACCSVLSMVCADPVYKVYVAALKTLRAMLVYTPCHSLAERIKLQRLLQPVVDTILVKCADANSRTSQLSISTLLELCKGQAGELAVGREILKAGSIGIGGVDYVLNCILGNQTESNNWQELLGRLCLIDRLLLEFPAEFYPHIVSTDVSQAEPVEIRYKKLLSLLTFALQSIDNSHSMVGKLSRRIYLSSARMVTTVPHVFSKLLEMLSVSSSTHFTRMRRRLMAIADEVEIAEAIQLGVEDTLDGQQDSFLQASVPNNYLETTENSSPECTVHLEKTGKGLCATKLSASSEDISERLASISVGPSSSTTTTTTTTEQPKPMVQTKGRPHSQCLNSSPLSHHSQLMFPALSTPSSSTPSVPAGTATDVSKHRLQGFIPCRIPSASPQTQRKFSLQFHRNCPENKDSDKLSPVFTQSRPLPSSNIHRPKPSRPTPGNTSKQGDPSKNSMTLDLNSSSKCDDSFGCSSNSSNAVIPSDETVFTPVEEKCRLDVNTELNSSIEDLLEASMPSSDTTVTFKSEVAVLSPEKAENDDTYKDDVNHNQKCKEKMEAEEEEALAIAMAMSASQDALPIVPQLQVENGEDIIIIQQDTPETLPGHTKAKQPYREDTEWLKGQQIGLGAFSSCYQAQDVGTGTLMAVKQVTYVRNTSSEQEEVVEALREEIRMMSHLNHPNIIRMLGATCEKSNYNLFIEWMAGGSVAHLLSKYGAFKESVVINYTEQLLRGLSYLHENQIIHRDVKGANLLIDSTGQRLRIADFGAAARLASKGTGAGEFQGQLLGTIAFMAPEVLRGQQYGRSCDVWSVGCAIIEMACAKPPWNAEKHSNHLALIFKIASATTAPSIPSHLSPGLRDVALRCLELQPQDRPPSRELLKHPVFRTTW

[6] = biological target: panel of more than 300 wild-type and mutant kinases (313 kinase panel) (Homo sapiens, UniProt Q15349)
[7] = biological target: panel of more than 300 wild-type and mutant kinases (313 kinase panel) (Homo sapiens, UniProt Q9HBH9)
[8] = biological target: panel of more than 300 wild-type and mutant kinases (313 kinase panel) (Homo sapiens, UniProt Q9NQU5)
[9] = biological target: panel of more than 300 wild-type and mutant kinases (313 kinase panel) (Homo sapiens, UniProt P29317)
[10] = biological target: panel of more than 300 wild-type and mutant kinases (313 kinase panel) (Homo sapiens, UniProt P42684); conditions: kinase ARG; 1 μM compound
[11] = biological target: panel of more than 300 wild-type and mutant kinases (313 kinase panel) (Homo sapiens, UniProt P48729)
[12] = biological target: panel of more than 300 wild-type and mutant kinases (313 kinase panel) (Homo sapiens, UniProt P48730)
[13] = biological target: panel of more than 300 wild-type and mutant kinases (313 kinase panel) (Homo sapiens, UniProt Q13153)
[14] = biological target: T1, panel of more than 300 wild-type and mutant kinases (313 kinase panel) (Homo sapiens, UniProt Q96L34)
T1 sequence (Q96L34 1-752): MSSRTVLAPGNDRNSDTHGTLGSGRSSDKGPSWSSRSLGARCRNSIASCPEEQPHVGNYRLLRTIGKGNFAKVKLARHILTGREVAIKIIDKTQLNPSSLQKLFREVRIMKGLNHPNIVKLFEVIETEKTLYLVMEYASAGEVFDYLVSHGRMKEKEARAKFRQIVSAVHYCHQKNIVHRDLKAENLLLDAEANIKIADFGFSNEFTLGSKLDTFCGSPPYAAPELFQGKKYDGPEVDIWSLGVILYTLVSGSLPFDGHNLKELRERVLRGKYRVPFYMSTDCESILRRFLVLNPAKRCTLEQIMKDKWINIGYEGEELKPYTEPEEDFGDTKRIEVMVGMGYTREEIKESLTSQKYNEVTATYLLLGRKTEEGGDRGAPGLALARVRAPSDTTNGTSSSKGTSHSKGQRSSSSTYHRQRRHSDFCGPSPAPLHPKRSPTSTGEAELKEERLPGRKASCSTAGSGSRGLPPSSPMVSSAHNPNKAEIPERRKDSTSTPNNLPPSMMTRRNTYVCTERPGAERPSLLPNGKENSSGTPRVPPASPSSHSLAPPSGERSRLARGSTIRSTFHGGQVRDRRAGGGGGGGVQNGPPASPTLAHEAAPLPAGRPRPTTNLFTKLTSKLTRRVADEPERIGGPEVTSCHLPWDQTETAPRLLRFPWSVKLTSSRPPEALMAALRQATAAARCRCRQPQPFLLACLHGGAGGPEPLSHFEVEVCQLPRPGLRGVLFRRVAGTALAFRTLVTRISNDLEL

[15] = kinase MAP3K1, compound at 1 μM

Chain of panel of more than 300 wild-type and mutant kinases (313 kinase panel) (Homo sapiens, UniProt P07947) (P07947 whole entry, change not shown): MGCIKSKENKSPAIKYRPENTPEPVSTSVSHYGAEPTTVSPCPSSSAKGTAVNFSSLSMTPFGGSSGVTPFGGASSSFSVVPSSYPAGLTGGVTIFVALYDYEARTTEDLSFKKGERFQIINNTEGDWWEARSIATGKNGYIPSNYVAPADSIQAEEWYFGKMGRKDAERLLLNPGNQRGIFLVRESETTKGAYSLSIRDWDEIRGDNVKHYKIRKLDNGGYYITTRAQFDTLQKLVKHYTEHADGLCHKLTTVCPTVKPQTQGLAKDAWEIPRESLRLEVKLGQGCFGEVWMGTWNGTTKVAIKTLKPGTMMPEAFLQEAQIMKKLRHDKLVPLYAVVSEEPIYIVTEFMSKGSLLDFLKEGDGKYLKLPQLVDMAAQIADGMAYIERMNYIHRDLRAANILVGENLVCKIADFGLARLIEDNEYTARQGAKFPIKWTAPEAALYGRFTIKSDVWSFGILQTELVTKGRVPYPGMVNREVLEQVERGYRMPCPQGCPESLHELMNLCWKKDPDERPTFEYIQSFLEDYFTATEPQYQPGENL

Compound | %-inhibition of YES ([1]; kinase YES, compound at 1 μM) [%] | %-inhibition of SRC ([2]; kinase SRC, 1 μM) [%] | %-inhibition of PKCα ([3]; kinase PKCα, 1 μM) [%] | %-inhibition, BTK [4] [%] | %-inhibition of MAP3K1 [5, 15] [%] | %-inhibition of MNK2 ([7]; kinase MNK2, 1 μM) [%] | %-inhibition of PAK6 ([8]; kinase PAK6, 1 μM) [%] | %-inhibition of EPHA2 ([9]; kinase EPHA2, compound at 1 μM) [%] | %-inhibition, ARG [10] [%] | %-inhibition, CK1α ([11]; kinase CK1α, 1 μM compound) [%] | %-inhibition, CK1δ ([12]; kinase CK1δ, 1 μM compound) [%] | %-inhibition of RSK3 ([6]; kinase RSK3, 1 μM) [%] | %-inhibition of MARK4 ([14]; kinase MARK4, compound at 1 μM) [%] | further results
COc1cc(Nc2c(C#N)cnc3cc(OCCCN4CCN(C)CC4)c(OC)cc23)c(Cl)cc1Cl [bosutinib] | 97 | 96 | 54 | 97 | 60 | -2 | -0.35 |  |  |  |  |  |  | %-inhibition of RSK3 ([6]; 1 µM): 67%
COc1cc2nccc(Oc3ccc(NC(=O)C4(C(=O)Nc5ccc(F)cc5)CC4)cc3)c2cc1OC [cabozantinib] | 90 | 92 | -8.47 | 93 | 36 | 97 | -4 | 98 | 29 | -9 | 0.0601 | 0.355 | -9 | %-inhibition of PAK1 ([13]; kinase PAK1, 1 μM): -2.55%
C[C@@H](Oc1cc(-c2cnn(C3CCNCC3)c2)cnc1N)c1c(Cl)ccc(F)c1Cl [crizotinib] | 65 |  | -8.47 |  | 28 | 2 | 3 |  | 80 | -1.36 | 9 | 3.34 | 51 | %-inhibition of PAK1 ([13]; kinase PAK1, 1 μM): -4%
CC(C)(C)c1nc(-c2cccc(NS(=O)(=O)c3c(F)cccc3F)c2F)c(-c2ccnc(N)n2)s1 [dabrafenib] |  | 68 |  | 60 | -40 |  | 9 | 7 | 54 | 13 | 8.51 |  | -27 | 
Cc1nc(Nc2ncc(C(=O)Nc3c(C)cccc3Cl)s2)cc(N2CCN(CCO)CC2)n1 [dasatinib] |  |  |  |  |  |  |  |  |  | -8.44 |  |  |  | 
C#Cc1cccc(Nc2ncnc3cc(OCCOC)c(OCCOC)cc23)c1 [erlotinib] |  |  |  |  |  |  |  |  |  |  |  |  |  | %-inhibition of YES ([1]; 1 µM): 51%; %-inhibition of SRC ([2]; 1 µM): 46%; %-inhibition of PKCα ([3]; 1 µM): 8%; %-inhibition of EPHA2 ([9]; 1 µM): 18%; %-inhibition, CK1α ([11]; 1 µM): 10%; %-inhibition, CK1δ ([12]; 1 µM): -4%; %-inhibition of PAK1 ([13]; 1 µM): 6.37%; %-inhibition of MAP3K1 ([5]; 1 µM): 6%; %-inhibition of RSK3 ([6]; 1 µM): 9%; %-inhibition of MARK4 ([14]; 1 µM): 14%; %-inhibition of MNK2 ([7]; 1 µM): 35%; %-inhibition of PAK6 ([8]; 1 µM): 5%
O=S(=O)(c1cccc2cnccc12)N1CCCNCC1 [fasudil] | 1.18 | -5 |  | 1.51 | 1.37 | 12 | 8 | -7 | -7 |  | -3.4 |  | -21 | 
CS(=O)(=O)CCNCc1ccc(-c2ccc3ncnc(Nc4ccc(OCc5cccc(F)c5)c(Cl)c4)c3c2)o1 [lapatinib] | 26 | 6 | 1 |  | 1.76 | 2.43 | 0.144 | 1.22 | 11 | 3.6 |  | 5.43 | 10 | %-inhibition, CK1δ ([12]; 1 µM): -3.34%
Cc1ccc(C(=O)Nc2ccc(CN3CCN(C)CC3)c(C(F)(F)F)c2)cc1C#Cc1cnc2cccnn12 [ponatinib] | 101 | 102 | -3.29 | 95 | -9 | 97 | -3 | 102 | 100 | 8 |  | 62 | -2.58 | 
CCN(CC)CCNC(=O)c1c(C)[nH]c(/C=C2\C(=O)Nc3ccc(F)cc32)c1C [sunitinib] | 99 |  |  |  |  |  |  |  |  |  | 32 |  | 92 | 
COc1cc2c(Nc3ccc(Br)cc3F)ncnc2cc1OCC1CCN(C)CC1 [vandetanib] | 100 |  | -0.27 |  | -7.43 |  | -5.42 | 86 | 94 | -3.59 | 6 | 9 | 2.39 | %-inhibition of PAK1 ([13]; kinase PAK1, 1 μM): -5.28%
